In patent US10214765B2, “Cell-permeable probes for identification and imaging of sialidases” (Academina Sinica, priority 2012, dated 2019):
Where two headings read alike, the source gives them in different places.

Tested on: oseltamivir-sensitive (WSN^274H) and oseltamivir-resistant (WSN^274Y) H1N1 influenza viruses
Type: binding, H1N1 influenza virus

## C#CCCC(=O)NC1C(O)C(F)C(F)(C(=O)O)OC1[C@H](O)[C@H](O)CO (stereo partly drawn) [DFSA-5-yne, 5-(Pent-4-ynamido)-2,3,5-trideoxy-3-fluoro-D-erythro-β-L-manno-non-2-ulopyranosylonic fluoride]
In the absence of OS
  labeling of OS^s and OS^r H1N1 influenza viruses: labeled
In the presence of competing OS
  labeling of OS^s and OS^r H1N1 influenza viruses: only the OS^r virus was detectable
